The assay concerns M. tuberculosis H37Rv growth inhibition with meropenem. Description: dose response, H37Rv, with and without meropenem (AID 434987).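 Also: growth over 7 days at 37 °C before Alamar Blue read on day 9.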
Setting [1] is: M. tuberculosis H37Rv growth inhibition, measured here: IC50 without meropenem.
[2] abbreviates: M. tuberculosis H37Rv growth inhibition, measured here: IC90 without meropenem.
Setting [3] is: measured here: IC90 with meropenem.

Activity calls are given as the source filed them. No rule for the calls is given here. Bounds are passed on as bounds.

On to `NS(=O)(=O)c1ccc(O)c(NC(=O)c2ccc([N+](=O)[O-])o2)c1`, for which the IC50 was 12.7 µM (inactive). For the same molecule, the IC50 under setting [1] amounted to 27.2 µM. The IC90 under setting [2] was > 100 µM. The IC90 under setting [3] was > 100 µM.
With `NS(=O)(=O)c1cccnc1Nc1c(Cl)cccc1Cl`, the IC50 is > 100 µM (inactive). The IC50 under setting [1] is > 100 µM. Besides, under setting [2], the IC90 is > 100 µM. The IC90 under setting [3] is > 100 µM.
Take `Cc1cc(C)c2sc(N(CCCN(C)C)C(=O)COc3ccc(Cl)cc3)nc2c1`: the IC50 is 36.6 µM (inactive). This molecule gave an IC50 under setting [1] of 53.6 µM. Also, the IC90 under setting [2] stood at 80.2 µM. Moreover, the IC90 under setting [3] is > 100 µM.
Consider `Cc1cc2ccccn2c1C(=O)c1ccc([N+](=O)[O-])o1`, for which the IC50 is > 100 µM (inactive). Besides, under setting [1], the IC50 is > 100 µM. Moreover, the IC90 under setting [2] was > 100 µM. The IC90 under setting [3] is > 100 µM.
For `Nc1c(C(=O)c2cccs2)sc2nsc(SCCN3CCCCC3)c12`, the IC50 is > 100 µM (inactive). Besides, the IC50 under setting [1] was > 100 µM. Also, the 90% effect concentration (IC90) under setting [2] is > 100 µM. The IC90 under setting [3] was > 100 µM.
With `C/C(=N\NC(=O)c1ccncc1)c1c(O)n(-c2ccccc2)c(=O)[nH]c1=O`, the IC50 was 2.81 µM (inactive). Moreover, the IC50 under setting [1] turned out to be 5.74 µM. Moreover, the IC90 under setting [2] is > 100 µM. Under setting [3], the IC90 was determined as 3.94 µM.
Turning to `COc1ccc([C@H]2CC(=O)C=C(/C=C/c3ccccc3)C2)cc1OC`, the IC50 is > 100 µM (inactive). In addition, under setting [1], the IC50 was > 100 µM. Further, the IC90 under setting [2] is > 100 µM. Besides, the IC90 under setting [3] is > 100 µM.
For the molecule `Cc1ccccc1Cn1cc(NC(=O)CSc2nc3c(c(C(F)(F)F)n2)CCc2ccccc2-3)cn1`, the IC50 was 26.4 µM. Besides, the 50% inhibitory concentration (IC50) under setting [1] is > 100 µM. The IC90 under setting [2] is > 100 µM. For the same molecule, the IC90 under setting [3] was > 100 µM.
On to `Cc1ccc(SCCNC(=O)c2ccc(C)c([N+](=O)[O-])c2)cc1`, for which the IC50 was 49.6 µM (inactive). Besides, under setting [1], the IC50 was > 100 µM. In addition, the IC90 under setting [2] was > 100 µM. Also, under setting [3], the IC90 is 54 µM.
As to `COc1ccc(OC)c(NC(=O)CSC2=C(C#N)C(c3ccco3)C3=C(CCCC3=O)N2)c1` (stereo not drawn), the IC50 was 70.4 µM (inactive). Further, the IC50 under setting [1] came to 94.2 µM. In addition, under setting [2], the IC90 is > 100 µM. In addition, the IC90 under setting [3] is > 100 µM.
On to `CCCOc1ccc(C2Nc3cccc4cccc(c34)N2)cc1`, for which the IC50 was > 100 µM (inactive). Also, the IC50 under setting [1] is > 100 µM. Also, the IC90 under setting [2] was > 100 µM. Further, under setting [3], the IC90 was > 100 µM.
On to `CCOc1ccc2nc(SC3CC(=O)N(c4ccc(OC)cc4)C3=O)sc2c1` (stereo not drawn), for which the IC50 is > 100 µM (inactive). Also, the IC50 under setting [1] was > 100 µM. Further, under setting [2], the IC90 is > 100 µM. The IC90 under setting [3] is > 100 µM.
Consider `CSc1ncc(Cl)c(C(=O)Nc2cccc3ccccc23)n1`, for which the IC50 is 8.49 µM. The molecule also returned an IC50 under setting [1] of 43.5 µM. Under setting [2], the IC90 was > 100 µM. Further, the IC90 under setting [3] was > 100 µM.
For the molecule `CC(=O)[C@@]1(O)CC[C@H]2[C@@H]3C[C@H](C)C4=CC(=O)CC[C@]4(C)[C@H]3CC[C@@]21C`, the IC50 is > 100 µM (inactive). Under setting [1], the IC50 was > 100 µM. In addition, under setting [2], the IC90 was > 100 µM. Also, the IC90 under setting [3] is > 100 µM.
As for `COc1cccc(NS(=O)(=O)c2ccc3[nH]cc(C(=O)NCCC(C)C)c(=O)c3c2)c1`, the IC50 is > 100 µM (inactive). Also, the IC50 under setting [1] is > 100 µM. Further, under setting [2], the IC90 is > 100 µM. The IC90 under setting [3] is > 100 µM.
Regarding `O=C(Nc1ccc(Cl)cc1F)c1cccc2ccccc12`, the IC50 was > 100 µM (inactive). For the same molecule, the IC50 under setting [1] is > 100 µM. Under setting [2], the 90% effect concentration (IC90) was > 100 µM. In addition, the IC90 under setting [3] is > 100 µM.
`CCCCNC(=O)c1onc(CSc2ccc(OC)cc2)c1C(=O)O`: the IC50 is 23.9 µM (inactive). Also, the IC50 under setting [1] came to 46.4 µM. Further, under setting [2], the IC90 was found to be 53.1 µM. In addition, the IC90 under setting [3] amounted to 27.2 µM.
On the same counts, the results for `COc1cc(NC(=O)c2ccc(CNc3c(N4CCCC4)c(=O)c3=O)cc2)cc(OC)c1OC` are 23.9 µM, > 100 µM, > 100 µM and > 100 µM.
For `CCOC(=O)c1c(NC(=O)COC(=O)c2ncc(Cl)c(Cl)c2Cl)sc(C(=O)N(C)C)c1C`, in that order: 24.8 µM (inactive), 47.3 µM, 53.4 µM and 27.7 µM.
For `Cc1cc(C(=O)CN2C(=O)NC(C)(CC(C)C)C2=O)c(C)n1-c1ccc2c(c1)OCO2` (stereo not drawn), in that order: 70 µM (inactive), 74.7 µM, 99.9 µM and 96.4 µM.
Consider `CC1(C)C2CC=C(/C=N/NC(=O)c3ccccc3O)C1C2` (stereo not drawn), for which the IC50 is 65.7 µM (inactive). In addition, the IC50 under setting [1] is > 100 µM. Also, under setting [2], the IC90 is > 100 µM. Further, the IC90 under setting [3] was > 100 µM.
Regarding `CC1(C)CC(CCNC(=O)CCl)(c2ccccc2)CCO1` (stereo not drawn), the IC50 was 2.38 µM. The same molecule returned an IC50 under setting [1] of 9.13 µM. The same molecule gave an IC90 under setting [2] of 34.7 µM. This molecule also came in with a concentration for an effect of 90% (IC90) under setting [3] of 8.14 µM.

For orientation: IC50 means the concentration needed to halve the response being measured. A word on the IC90: it is the concentration needed for an effect of 90%. Lower therefore signals an effect from little substance.

Source of the values: PubChem BioAssay AID434987 (Southern Research Specialized Biocontainment Screening …, 2010).
